Test results published in US20250188067A1, “SALT AND CRYSTAL FORM OF DIPEPTIDYL PEPTIDASE INHIBITOR COMPOUND” (HAISCO PHARMACEUTICALS PTE. LTD., priority 2022, published 2025).
Converted amounts (≈) assume the structure as drawn.

How the values were obtained:
[1] = target: Recombinant human DPP1 enzyme (Homo sapiens (Human), UniProt P53634); assay: Activity detection test of DPP1 enzyme in vitro
[2] = Dynamic solubility; type: physicochemical; conditions: thermodynamic from solid, 37° C.
Experimental: A sample of about 0.9 mL was taken, centrifuged and filtered, tested the solid by XRPD, and tested the liquid by HPLC concentration and pH.

[3] = The pharmacokinetic test of rat; type: in vivo; conditions: male SD rats, Gavage (3 mg/kg)
Experimental: • 1.1 Test animals: male SD rats, about 220 g, 6 to 8 weeks old, 6 rats/compound. Purchased from Chengdu Senwell Experimental Animals Co., Ltd. • 1.2 Test design: On the day of the test, 6 SD rats were randomly divided into groups according to body weight. Water and no food for 12 to 14 hours one day before administration, and food 4 hours after administration.
Vehicle for intravenous administration: 5% DMA+5% Solutol+90% Saline; vehicle for gavage administration: 0.5% MC; the reference compound INS1007, which is Compound 2 in patent WO2015110826A1, was prepared according to the method of the patent.
Before and after administration, 0.1 mL of blood was taken from the orbit under isoflurane anesthesia. It was placed in an EDTAK2 centrifuge tube, and centrifuged at 5000 rpm and 4° C. for 10 min, and the plasma was collected. Time points of blood collection in the intravenous groups: 0, 5, 15, 30 min, 1, 2, 4, 6, 8, 24 h; time points of blood collection in the gavage groups: 0, 5, 15, 30 min, 1, 2, 4, 6, 8, 24 h. Before analysis and detection, all samples were stored at −80° C.

[4] = Hygroscopicity by Dynamic Vapour Sorption (DVS); type: physicochemical; conditions: 25° C./80% RH
Experimental: The hygroscopicity of the crystalline A of hydrochloride, crystalline A of malate and crystalline B of adipate was evaluated by a Dynamic Vapour Sorption (DVS) instrument. Crystalline form […] starts with ambient humidity (˜60% RH), and crystalline form B starts with 0% relative humidity (0% RH). The test collected mass change percentage of the sample under constant temperature conditions of 25° C., with changes in humidity (60% RH-95% RH-0% RH-95% RH or 0% RH-95% RH-0% RH). The test results are shown in FIGS. 103, 104 and 105 respectively.

[5] = Solid stability evaluation (XRPD and HPLC) at 25° C./60% RH and 40° C./75% RH; type: physicochemical; conditions: for Crystalline form change: XRPD
[6] = HPLC impurities of solid stability samples; type: physicochemical

Chain of Recombinant human DPP1 enzyme (P53634 25-134): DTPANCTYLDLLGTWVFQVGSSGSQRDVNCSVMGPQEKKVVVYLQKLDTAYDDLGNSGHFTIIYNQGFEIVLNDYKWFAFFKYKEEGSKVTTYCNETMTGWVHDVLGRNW
Chain of Recombinant human DPP1 enzyme (P53634 231-394): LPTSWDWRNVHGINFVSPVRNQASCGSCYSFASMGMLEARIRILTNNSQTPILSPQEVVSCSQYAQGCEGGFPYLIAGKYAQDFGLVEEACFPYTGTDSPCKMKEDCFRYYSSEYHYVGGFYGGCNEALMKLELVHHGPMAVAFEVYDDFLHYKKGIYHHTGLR
Chain of Recombinant human DPP1 enzyme (P53634 395-463): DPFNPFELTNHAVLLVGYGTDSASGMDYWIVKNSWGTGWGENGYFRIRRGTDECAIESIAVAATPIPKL

Structure (SMILES)	water sorption [4]	HPLC purity (Area %) ([5]; 25° C./60% RH, 1 week)	Purity/Starting purity (%) ([5]; 25° C./60% RH, 1 week)	Crystalline form change ([5]; 25° C./60% RH, 1 week)	HPLC purity (Area %) ([5]; 25° C./60% RH, 3 weeks)	Purity/Starting purity (%) ([5]; 25° C./60% RH, 3 weeks)	HPLC purity (Area %) ([5]; 40° C./75% RH, 1 week)	Purity/Starting purity (%) ([5]; 40° C./75% RH, 1 week)	Crystalline form change ([5]; 40° C./75% RH, 1 week)	HPLC purity (Area %) ([5]; 40° C./75% RH, 3 weeks)	Purity/Starting purity (%) ([5]; 40° C./75% RH, 3 weeks)	HPLC purity (Area %) ([5]; Starting)	HPLC peak at RRT 1.00 ([6]; RRT 1.00, 25° C./60% RH/1 W)	HPLC peak at RRT 1.00 ([6]; RRT 1.00, 25° C./60% RH/3 W)	HPLC peak at RRT 1.00 ([6]; RRT 1.00, 40° C./75% RH/1 W)	HPLC peak at RRT 1.00 ([6]; RRT 1.00, Starting)	HPLC impurity at RRT 1.12 ([6]; RRT 1.12, 25° C./60% RH/1 W)	HPLC impurity at RRT 1.12 ([6]; RRT 1.12, 25° C./60% RH/3 W)	HPLC impurity at RRT 1.12 ([6]; RRT 1.12, 40° C./75% RH/1 W)	HPLC impurity at RRT 1.12 ([6]; RRT 1.12, 40° C./75% RH/3 W)	other results
Cn1c(=O)oc2ccc(-c3ccc(C[C@@H](C#N)NC(=O)[C@@H]4CNCCCO4)c(F)c3)cc21 [Compound I, (S)—N—((S)-1-cyano-2-(2-fluoro-4-(3-methyl-2-oxo-2,3-dihydrobenzo[d]oxazol-5-yl)phenyl)ethyl)-1,4-oxazepane-2-carboxamide]	–	–	–	–	–	–	–	–	–	–	–	–	–	–	–	–	–	–	–	–	inhibitory activity against DPP1 (conclusion in words) [1]: high inhibitory activity; solubility at 1 h ([2]; simulated gastric fluid, SGF): > 5200 µg/mL; solubility at 2 h ([2]; simulated gastric fluid, SGF): > 5200 µg/mL; solubility at 4 h ([2]; simulated gastric fluid, SGF): > 5300 µg/mL; solubility at 24 h ([2]; simulated gastric fluid, SGF): > 5200 µg/mL; solubility at 1 h ([2]; FaSSIF): 370 µg/mL (≈ 844 µM); solubility at 2 h ([2]; FaSSIF): 360 µg/mL (≈ 821 µM); solubility at 4 h ([2]; FaSSIF): 350 µg/mL (≈ 798 µM); solubility at 24 h ([2]; FaSSIF): 290 µg/mL (≈ 661 µM); solubility at 1 h ([2]; FeSSIF): 2700 µg/mL (≈ 6160 µM); solubility at 2 h ([2]; FeSSIF): 2700 µg/mL (≈ 6160 µM); solubility at 4 h ([2]; FeSSIF): 2700 µg/mL (≈ 6160 µM); solubility at 24 h ([2]; FeSSIF): 2300 µg/mL (≈ 5250 µM); solubility at 1 h ([2]; water, H2O): 35 µg/mL (≈ 79.8 µM); solubility at 2 h ([2]; water, H2O): 30 µg/mL (≈ 68.4 µM); solubility at 4 h ([2]; water, H2O): 16 µg/mL (≈ 36.5 µM); solubility at 24 h ([2]; water, H2O): 16 µg/mL (≈ 36.5 µM); F [3]: >100%
Cn1c(=O)oc2ccc(-c3ccc(C[C@@H](C#N)NC(=O)[C@@H]4CNCCCO4)cc3)cc21 [INS1007, reference compound]	–	–	–	–	–	–	–	–	–	–	–	–	–	–	–	–	–	–	–	–	F [3]: 88.1%
Cl.Cn1c(=O)oc2ccc(-c3ccc(C[C@@H](C#N)NC(=O)[C@@H]4CNCCCO4)c(F)c3)cc21 [crystalline A of hydrochloride]	0.47%	99.60 Area %	100.0%	No	99.67 Area %	100.0%	99.59 Area %	100.0%	No	99.17 Area %	99.5%	99.63 Area %	99.60	99.67	99.59	99.63	0.14	0.13	0.12	0.18	HPLC impurity at RRT 1.06 ([6]; RRT 1.06, 25° C./60% RH/1 W): 0.26; HPLC impurity at RRT 1.06 ([6]; RRT 1.06, 25° C./60% RH/3 W): 0.21; HPLC impurity at RRT 1.06 ([6]; RRT 1.06, 40° C./75% RH/1 W): 0.20; HPLC impurity at RRT 1.06 ([6]; RRT 1.06, Starting): 0.21; HPLC impurity at RRT 1.12 ([6]; RRT 1.12, Starting): 0.16; HPLC impurity at RRT 1.16 ([6]; RRT 1.16, 40° C./75% RH/3 W): 0.06; HPLC impurity at RRT 1.28 ([6]; RRT 1.28, 40° C./75% RH/1 W): 0.09; HPLC impurity at RRT 1.28 ([6]; RRT 1.28, 40° C./75% RH/3 W): 0.17
Cn1c(=O)oc2ccc(-c3ccc(C[C@@H](C#N)NC(=O)[C@@H]4CNCCCO4)c(F)c3)cc21.O=C(O)CC(O)C(=O)O [crystalline A of malate]	1.27%	99.89 Area %	100.0%	No	99.91 Area %	100.0%	99.92 Area %	100.0%	No	99.92 Area %	100.0%	99.90 Area %	99.89	99.91	99.92	99.90	0.11	0.09	0.08	0.08	HPLC peak at RRT 1.00 ([6]; RRT 1.00, 40° C./75% RH/3 W): 99.92; HPLC impurity at RRT 1.12 ([6]; RRT 1.12, Starting): 0.10
Cn1c(=O)oc2ccc(-c3ccc(C[C@@H](C#N)NC(=O)[C@@H]4CNCCCO4)c(F)c3)cc21.O=C(O)CCCCC(=O)O [crystalline B of adipate]	0.24%	99.71 Area %	100.0%	No	99.72 Area %	100.0%	99.74 Area %	100.0%	No	99.72 Area %	100.0%	99.74 Area %	99.71	99.72	99.74	99.74	0.29	0.28	0.26	0.28	HPLC peak at RRT 1.00 ([6]; RRT 1.00, 40° C./75% RH/3 W): 99.72; HPLC impurity at RRT 1.12 ([6]; RRT 1.12, Starting): 0.26
